Earlier results in US8637672B2 (Deciphera Pharmaceuticals, LLC, priority 2010, dated 2014).

Molecular target: VEGFR-2 (KDR kinase) (Homo sapiens, UniProt P35968, DEL940-989/E990V)
Settings: values published in the '188/'556 applications; cited from earlier work

Chain of VEGFR-2 (KDR kinase) (P35968 with tags, fused parts or gaps DEL940-989/E990V): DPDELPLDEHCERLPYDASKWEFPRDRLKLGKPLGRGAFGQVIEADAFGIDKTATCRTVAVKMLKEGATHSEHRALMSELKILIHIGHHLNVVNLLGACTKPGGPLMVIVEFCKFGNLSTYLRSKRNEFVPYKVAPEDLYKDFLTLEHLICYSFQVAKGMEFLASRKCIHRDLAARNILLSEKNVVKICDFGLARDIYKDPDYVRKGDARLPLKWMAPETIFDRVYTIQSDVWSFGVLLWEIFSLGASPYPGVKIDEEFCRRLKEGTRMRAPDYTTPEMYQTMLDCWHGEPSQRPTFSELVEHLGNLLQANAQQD

In the case of `CN1CCN(C2CCN(C(=O)Nc3cc(Oc4ccc(NC(=O)C5(C(=O)Nc6ccc(F)cc6)CC5)c(F)c4)ccn3)CC2)CC1` [Compound F], the IC50 is given as 240 nM.
